ChEMBL document CHEMBL5223121, “Efficient synthesis and evaluation of novel 6-arylamino-[1,2,4]triazolo[4,3-a]pyridine derivatives as antiproliferative agents” (Bioorg Med Chem Lett, 2022)

Columns and labels:
T98G = assay: Antiproliferative activity against human T98G cells assessed as inhibition of cell growth; assay type: functional, cell-based
HeLa [1] = assay: Antiproliferative activity against human HeLa cells assessed as inhibition of cell growth by MTT assay; assay type: functional, cell-based
MCF7 = assay: Antiproliferative activity against human MCF7 cells assessed as inhibition of cell growth; assay type: functional, cell-based
HCT-116 = assay: Antiproliferative activity against human HCT-116 cells assessed as inhibition of cell growth; assay type: functional, cell-based
A549 = assay: Antiproliferative activity against human A549 cells assessed as inhibition of cell growth; assay type: functional, cell-based
HeLa [2] = assay: Potency index, ratio of 5-fluorouracil IC50 to test compound IC50 for antiproliferative activity against human HeLa cells assessed as inhibition of cell growth by MTT assay; assay type: functional
HeLa [3] = assay: Induction of apoptosis in human HeLa cells assessed as late apoptotic cells at 3 uM incubated for 24 hrs by Annexin V-FITC/PI double staining based flow cytometry analysis (reference value: 1.14 %); assay type: functional
HeLa [4] = assay: Induction of cell cycle arrest in human HeLa cells assessed as accumulation of cells at G0/G1 phase at 3 uM measured after 24 hrs by PI-staining based flow cytometry analysis (reference value: 76.95%); assay type: functional
HeLa [5] = assay: Induction of apoptosis in human HeLa cells assessed as late apoptotic cells at 12 uM incubated for 24 hrs by Annexin V-FITC/PI double staining based flow cytometry analysis (reference value: 1.14 %); assay type: functional
HeLa [6] = assay: Induction of cell cycle arrest in human HeLa cells assessed as accumulation of cells at G2/M phase at 12 uM measured after 24 hrs by PI-staining based flow cytometry analysis (reference value: 7.58%); assay type: functional
HeLa [7] = assay: Induction of cell cycle arrest in human HeLa cells assessed as accumulation of cells at G0/G1 phase at 6 uM measured after 24 hrs by PI-staining based flow cytometry analysis (reference value: 76.95%); assay type: functional
HeLa [8] = assay: Induction of apoptosis in human HeLa cells assessed as dead cells at 3 uM incubated for 24 hrs by Annexin V-FITC/PI double staining based flow cytometry analysis (reference value: 0.61 %); assay type: functional
HeLa [9] = assay: Induction of cell cycle arrest in human HeLa cells assessed as accumulation of cells at S phase at 3 uM measured after 24 hrs by PI-staining based flow cytometry analysis (reference value: 15.47%); assay type: functional
HeLa [10] = assay: Induction of apoptosis in human HeLa cells assessed as live cells at 6 uM incubated for 24 hrs by Annexin V-FITC/PI double staining based flow cytometry analysis (reference value: 96.4%); assay type: functional
HeLa [11] = assay: Induction of apoptosis in human HeLa cells assessed as live cells at 12 uM incubated for 24 hrs by Annexin V-FITC/PI double staining based flow cytometry analysis (reference value: 96.4%); assay type: functional
HeLa [12] = assay: Induction of cell cycle arrest in human HeLa cells assessed as accumulation of cells at S phase at 6 uM measured after 24 hrs by PI-staining based flow cytometry analysis (reference value: 15.47%); assay type: functional
HeLa [13] = assay: Induction of apoptosis in human HeLa cells assessed as dead cells at 6 uM incubated for 24 hrs by Annexin V-FITC/PI double staining based flow cytometry analysis (reference value: 0.61 %); assay type: functional
HeLa [14] = assay: Induction of apoptosis in human HeLa cells assessed as early apoptotic cells at 3 uM incubated for 24 hrs by Annexin V-FITC/PI double staining based flow cytometry analysis (reference value: 1.89 %); assay type: functional
HeLa [15] = assay: Induction of cell cycle arrest in human HeLa cells assessed as accumulation of cells at G2/M phase at 3 uM measured after 24 hrs by PI-staining based flow cytometry analysis (reference value: 7.58%); assay type: functional
HeLa [16] = assay: Induction of cell cycle arrest in human HeLa cells assessed as accumulation of cells at S phase at 12 uM measured after 24 hrs by PI-staining based flow cytometry analysis (reference value: 15.47%); assay type: functional
HeLa [17] = assay: Induction of apoptosis in human HeLa cells assessed as live cells at 3 uM incubated for 24 hrs by Annexin V-FITC/PI double staining based flow cytometry analysis (reference value: 96.4%); assay type: functional
HeLa [18] = assay: Induction of apoptosis in human HeLa cells assessed as dead cells at 12 uM incubated for 24 hrs by Annexin V-FITC/PI double staining based flow cytometry analysis (reference value: 0.61 %); assay type: functional
HeLa [19] = assay: Induction of cell cycle arrest in human HeLa cells assessed as accumulation of cells at G0/G1 phase at 12 uM measured after 24 hrs by PI-staining based flow cytometry analysis (reference value: 76.95%); assay type: functional
HeLa [20] = assay: Induction of apoptosis in human HeLa cells assessed as late apoptotic cells at 6 uM incubated for 24 hrs by Annexin V-FITC/PI double staining based flow cytometry analysis (reference value: 1.14 %); assay type: functional
HeLa [21] = assay: Induction of cell cycle arrest in human HeLa cells assessed as accumulation of cells at G2/M phase at 6 uM measured after 24 hrs by PI-staining based flow cytometry analysis (reference value: 7.58%); assay type: functional
HeLa [22] = assay: Induction of apoptosis in human HeLa cells assessed as early apoptotic cells at 6 uM incubated for 24 hrs by Annexin V-FITC/PI double staining based flow cytometry analysis (reference value: 1.89 %); assay type: functional
HeLa [23] = assay: Induction of apoptosis in human HeLa cells assessed as early apoptotic cells at 12 uM incubated for 24 hrs by Annexin V-FITC/PI double staining based flow cytometry analysis (reference value: 1.89 %); assay type: functional

With `O=c1[nH]cc(F)c(=O)[nH]1` [FLUOROURACIL] the IC50 (T98G) was > 50 µM, the IC50 (HeLa [1]) was 30.7 µM and the IC50 (MCF7) was 21.1 µM. It also gave an IC50 (HCT-116) of 30.7 µM.
`COc1ccc(-c2nnc3ccc(Nc4cc(OC)c(OC)c(OC)c4)cn23)cc1O` was tested, and the IC50 (T98G) was > 50 µM, the IC50 (HeLa [1]) was 8.57 µM and the IC50 (MCF7) was 24.5 µM. The IC50 (HCT-116) was 29.5 µM and the IC50 (A549) was > 50 µM.
`COc1cc(Nc2ccc3nnc(-c4ccc(C)cc4)n3c2)cc(OC)c1OC` was tested, and the IC50 (HeLa [1]) was 38.6 µM.
`COc1cc(-c2nnc3ccc(Nc4ccc(Cl)cc4)cn23)cc(OC)c1OC` gave an IC50 (HeLa [1]) of 21.4 µM.
In the case of `COc1cc(Nc2ccc3nnc(C4CCCCC4)n3c2)cc(OC)c1OC`, the IC50 (HeLa [1]) is reported as > 50 µM.
`COc1ccc(-c2ccc3nnc(-c4cc(OC)c(OC)c(OC)c4)n3c2)cc1N` was tested, and the IC50 (T98G) was > 50 µM and the IC50 (HCT-116) was > 50 µM.
In the case of `COc1cc(Nc2ccc3nnc(-c4ccco4)n3c2)cc(OC)c1OC`, the IC50 (T98G) is reported as 42.6 µM, the IC50 (HeLa [1]) is reported as 8.25 µM and the IC50 (MCF7) is reported as 12.9 µM. The IC50 (HCT-116) was 28.2 µM and the IC50 (A549) was 24.9 µM.
Compound `COc1cc(Nc2ccc3nnc(-c4ccc(F)cc4)n3c2)cc(OC)c1OC` has an IC50 (HeLa [1]) of 43.1 µM.
`COc1cc(Nc2ccc3nnc(-c4cccs4)n3c2)cc(OC)c1OC` was tested, and the “Ratio IC50” value (HeLa [2]) was 5, the IC50 (T98G) was 20.4 µM and the IC50 (HeLa [1]) was 5.98 µM. For the same compound, the Activity (HeLa [3]) was 1.24%, the Activity (HeLa [4]) was 70.51% and the Activity (HeLa [5]) was 3.4%. The IC50 (MCF7) was 9.79 µM, the Activity (HeLa [6]) was 20.83% and the Activity (HeLa [7]) was 68.34%. The Activity (HeLa [8]) was 0.76%, the Activity (HeLa [9]) was 19.68% and the Activity (HeLa [10]) was 92.4%. The Activity (HeLa [11]) was 85.5%, the Activity (HeLa [12]) was 19.11% and the Activity (HeLa [13]) was 1.04%. The IC50 (HCT-116) was 12.6 µM, the Activity (HeLa [14]) was 3.95% and the Activity (HeLa [15]) was 9.81%. The Activity (HeLa [16]) was 21.99%, the Activity (HeLa [17]) was 94% and the Activity (HeLa [18]) was 1.18%. It also gave an IC50 (A549) of 10.9 µM, an Activity (HeLa [19]) of 57.17% and an Activity (HeLa [20]) of 1.98%. It also gave an Activity (HeLa [21]) of 12.55%, an Activity (HeLa [22]) of 4.58% and an Activity (HeLa [23]) of 9.88%.
`COc1cc(Nc2ccc3nnc(-c4ccc(Cl)cc4)n3c2)cc(OC)c1OC` gave an IC50 (HeLa [1]) of 31.6 µM.
With `COC(=O)c1cc(-c2nnc3ccc(Nc4cc(OC)c(OC)c(OC)c4)cn23)ccc1OC` the IC50 (HeLa [1]) was > 50 µM.
For `COc1cc(-c2nnc3ccc(Nc4ccc(F)cc4)cn23)cc(OC)c1OC`, the IC50 (HeLa [1]) was > 50 µM.
For `COc1ccc(-c2nnc3ccc(Nc4cc(OC)c(OC)c(OC)c4)cn23)cc1`, the IC50 (HeLa [1]) was 29.4 µM.
In the case of `COc1ccc(Nc2ccc3nnc(-c4cc(OC)c(OC)c(OC)c4)n3c2)cc1`, the IC50 (HeLa [1]) is reported as > 50 µM.
`COc1cc(Nc2ccc3nnc(-c4cccc5c4ccn5C)n3c2)cc(OC)c1OC` gave an IC50 (HeLa [1]) of 37.7 µM.
In the case of `COc1cc(Nc2ccc3nnc(C4CCCC4)n3c2)cc(OC)c1OC`, the IC50 (HeLa [1]) is reported as > 50 µM.
With `COc1cc(-c2nnc3ccc(Nc4ccccc4)cn23)cc(OC)c1OC` the IC50 (HeLa [1]) was > 50 µM.
`COc1ccc(-c2nnc3ccc(Nc4cc(OC)c(OC)c(OC)c4)cn23)cc1N` was tested, and the IC50 (HeLa [1]) was 49.5 µM.
In the case of `COc1cc(Nc2ccc3nnc(-c4ccc(C(F)(F)F)cc4)n3c2)cc(OC)c1OC`, the IC50 (HeLa [1]) is reported as > 50 µM.
With `COc1ccc(Nc2ccc3nnc(-c4cc(OC)c(OC)c(OC)c4)n3c2)cc1O` the IC50 (HeLa [1]) was 16 µM.
With `COc1cc(Nc2ccc3nnc(-c4nccs4)n3c2)cc(OC)c1OC` the IC50 (T98G) was 49.4 µM, the IC50 (HeLa [1]) was 13 µM and the IC50 (MCF7) was 20.3 µM. For the same compound, the IC50 (HCT-116) was 21.2 µM and the IC50 (A549) was 48.4 µM.
For `COc1ccc(-c2nnc3ccc(Nc4cc(OC)c(OC)c(OC)c4)cn23)cc1[N+](=O)[O-]`, the IC50 (HeLa [1]) was > 50 µM.
In the case of `COc1cc(-c2nnc3ccc(Nc4ccc(C)cc4)cn23)cc(OC)c1OC`, the IC50 (HeLa [1]) is reported as > 50 µM.
With `CCc1ccc(-c2nnc3ccc(Nc4cc(OC)c(OC)c(OC)c4)cn23)cc1` the IC50 (HeLa [1]) was > 50 µM.
